Laboratory results as given in patent US20250382250A1, “STILBENE DERIVATIVE AS AHR AGONIST AND USE THEREOF” (NANJING GRITPHARMACO., LTD., priority 2022, published 2025).

Tests used:
DSS-induced colitis = DSS-induced colitis mouse model; format: in vivo, C57BL/6 mice; conditions: 10 mg/kg intragastric, DSS 2.5% 8 days; for effect on colon length: day 9
Description: • (1) Animals: 40 C57BL/6 mice, male, aged 8 weeks, 22-24 g • (2) Materials: […] Biomedicals, USA, Cat. No. […] Tween 80; Wahaha purified water • (3) Procedures: […] The solution was inspected daily and replaced with fresh DSS solution when necessary. On day one after modeling, the treatment was given. […] On day 9, the mice were sacrificed, and the blood and colon were collected. The colon length, occult blood in the cecal contents, and other conditions were also recorded. Test compound formulation: 1.00 mg of compound powder was dissolved in 20 μL of DMSO completely. Then, 20 μL of Tween 80 was added, and the mixture was well mixed. 0.96 mL of Wahaha purified water was added, and the mixture was well mixed to give a 1 mg/mL solution, which was administered at a dose of 0.1 mL/10 g (body weight). Solvent: 20 μL of DMSO, 20 μL of Tween 80, and 0.96 mL of Wahaha purified water were mixed well (used in the modeling group).

IMQ-induced psoriasis = IMQ-induced psoriasis in mice (PASI score); format: in vivo, KM mice; conditions: for PASI score (folds, scales, erythema): IMQ mice, 1.2 wt % in blank matrix, 62.5 mg topical
Description: • 1) The efficacy on IMQ-induced psoriasis in mice by compound 6 # was evaluated.
[drawing 91] • 2) Grouping • (1) Petrolatum+blank matrix group, 10 mice; • (2) IMQ+blank matrix group, 10 mice; • (3) IMQ+compound 6 #group (1.2 wt % in blank matrix), 10 mice. • IMQ: imiquimod • 3) Formulation • IMQ: 5% imiquimod (imiquimod was used for inducing psoriasis on the skin of modeling mice) 1.2% compound 6 #formulation was prepared in blank matrix • 4) Animals • Species and strain: SPF-grade KM mice, male • Weight: 35-40 g • Source: SPF (Beijing) Biotechnology Co., Ltd. • Housing conditions: air-conditioned room, with a temperature of 18-26° C. and a relative humidity of 20%-60%. • 5) Procedures
Skin pretreatment: Mice were given free access to water and food. After 5 days of adaptation in the animal room, the hair on the back of the mice within an area of 2 cm×2.5 cm was shaved. The area was treated with a depilatory cream for 30 s-1 min, and then the cream was removed with cotton pads. Randomization: 24 h after depilation, […] by weight: petrolatum+blank matrix group (10 mice); IMQ+blank matrix group (10 mice); IMQ+compound 6 #group (1.2% compound in blank matrix) (10 mice).
Modeling and treatment: 62.5 mg of 5% imiquimod or petrolatum in the morning was administered to the mice in the morning. In the afternoon, 62.5 mg of blank matrix or 1.2% compound 6 # was smeared on the back.
Recording: Before modeling in the morning, the condition of the skin folds, erythema, and scales was observed, scored, and photographed daily, and the mouse PASI score was calculated.

[1] = Drug permeation rate test, in vitro diffusion through semipermeable membrane; format: in vitro ADME; conditions: ointments: 2# 1.2 wt %, 6# 1.2 wt %, benvitimod 1.0 wt %, 32° C.
Description: Test compounds: compound 2 #ointment, 1.2 wt %; compound 6 #ointment, 1.2 wt %; benvitimod ointment, 1.0 wt %;
[drawing 90] • (1) Preparation of semipermeable membrane: The semipermeable membrane, which had been prepared in advance, was taken out from the refrigerator; • (2) Preparation of receiving liquid: 100 mL of polyethylene glycol 400 solution was brought to a final volume of 250 mL with normal saline. The mixture was mixed well and stored at 4° C. Before each permeation in the receiving compartment, the system was preheated to 32° C.; • (3) In vitro diffusion test: A drug transdermal diffusion apparatus was used to fix the processed semipermeable membrane between the supply and receiving compartments. A constant temperature water bath circulation at 32° C. was maintained. The system was equilibrated for 30 min. Upon each replacement of the receiving liquid, the air at the lower layer was exhausted. About 0.5 g of the ointment was evenly smeared in the supply compartment. The system was stirred with a magnetic stirring at a rotation speed of 600 r/min. At 0.5, 1, 2, 4, 6, and 24 h, 1 mL of sample liquid was taken out from the receiving compartment, and simultaneously, an equal amount of fresh receiving liquid at the same temperature was added;
The sampling time points were 0.5, 1, 2, 4, 6, and 24 h, and 1 mL of sample was directly transferred into a liquid phase vial. Simultaneously, an equal amount of fresh receiving liquid at the same temperature was added. The liquid phase detection was conducted to calculate the drug permeation rate.

24-hour drug permeation rate (rank order) [1]	Compound	disease activity indicator (body weight change and hematochezia) (DSS-induced colitis)	effect on colon length (DSS-induced colitis)	PASI score (folds, scales, erythema) (IMQ-induced psoriasis; Day 1)	PASI score (folds, scales, erythema) (IMQ-induced psoriasis; Day 2)	PASI score (folds, scales, erythema) (IMQ-induced psoriasis; Day 3)	PASI score (folds, scales, erythema) (IMQ-induced psoriasis; Day 4)	PASI score (folds, scales, erythema) (IMQ-induced psoriasis; Day 5)	PASI score (folds, scales, erythema) (IMQ-induced psoriasis; Day 6)	PASI score (folds, scales, erythema) (IMQ-induced psoriasis; Day 7)	therapeutic effect versus IMQ+blank matrix group (IMQ-induced psoriasis; day 7, 1.2 wt % in blank matrix)
benvitimod >2 #>6 #	Oc1cc(/C=C/c2ccc(F)cc2)cc(O)c1C1CCCCC1 [Compound 6, (E)-2-cyclohexyl-5-(4-fluorostyryl)-1,3-benzenediol]	a more significant effect	superior to that in the reference 1 #benvitimod group	3.90	4.30	6.10	6.30	6.50	5.80	5.60	significantly superior therapeutic effect
benvitimod >2 #>6 #	CC(C)c1c(O)cc(/C=C/c2ccccc2)cc1O [Reference 1#, Benvitimod, reference compound]	good therapeutic effects	the conditions were improved								
